Assay results reported in PubChem BioAssay (NCI).
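Each compound was tested at five concentrations against cells in 96-well plates for 48 hours. TGI denotes the concentration required for complete inhibition of growth.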

Columns and labels:
Assay in all cases: inhibition of tumour cell growth, NCI panel, 48 h
A498 renal = tested on: A498 renal
ACHN renal = tested on: ACHN renal
HCC-2998 colon = tested on: HCC-2998 colon
K-562 leukemia = tested on: K-562 leukemia
MDA-N = tested on: MDA-N
OVCAR-3 ovarian = tested on: OVCAR-3 ovarian
PC-3 prostate = tested on: PC-3 prostate
SK-MEL-2 melanoma = tested on: SK-MEL-2 melanoma
SK-MEL-28 melanoma = tested on: SK-MEL-28 melanoma
SNB-19 CNS = tested on: SNB-19 CNS
UACC-62 melanoma = tested on: UACC-62 melanoma

| SMILES | TGI (A498 renal) [µM] | TGI (ACHN renal) [µM] | TGI (HCC-2998 colon) [µM] | TGI (K-562 leukemia) [µM] | TGI (MDA-N) [µM] | TGI (OVCAR-3 ovarian) [µM] | TGI (PC-3 prostate) [µM] | TGI (SK-MEL-2 melanoma) [µM] | TGI (SK-MEL-28 melanoma) [µM] | TGI (SNB-19 CNS) [µM] | TGI (UACC-62 melanoma) [µM] |
| --- | --- | --- | --- | --- | --- | --- | --- | --- | --- | --- | --- |
| O=C(O)C1CSC2(CCCN(Cc3ccccc3)C2)N1 (stereo unspecified) | > 100 | > 100 | > 100 | > 81.1 | > 100 | > 100 | > 100 | > 100 | > 100 | > 100 | > 100 |
| Cc1nccn1S(=O)(=O)c1ccc(Cl)cc1 | > 100 | > 100 | 88 | > 100 | 51 | > 100 | > 100 | > 100 | > 100 | > 100 | > 100 |
| O=C(O)c1cccc(S(=O)(=O)NN2C(=O)CSC2c2c(O)ccc3ccccc23)c1 (stereo unspecified) | 46.2 | > 100 | > 100 | > 100 | > 100 | 62.5 | > 100 | > 100 | 79.2 | 87 | 66.4 |
| CCC(C)N1CN(c2ccccc2)C2(CCN(CCCC3(c4ccc(F)cc4)OCCO3)CC2)C1=O (stereo unspecified) | 37 | 14.9 | 26.9 | 34.3 | 17.9 | 29.8 | 11.4 | 28.7 | 34.4 | 34.6 | > 55.2 |
| COc1ccc(/C=C2\OC(=O)C(Cl)=C2c2ccc(OC)c(Cl)c2)cc1 | 39.1 | > 100 | > 100 | > 100 | 47.1 | 43.7 | > 100 | > 100 | > 100 | > 100 | 80 |
| CC1=NN(c2nc(N)nc(-c3cc4ccccc4oc3=N)n2)C(C)(C)C1 | 66.9 | 34.8 | 28.8 | 53.1 | 31.2 | 31.6 | 33 | 41.8 | 30.5 | > 100 | 34.1 |
| COC(=O)/C=C\C(C#N)(C#N)N=Cc1ccc(Br)cc1 | 29.8 | 8.92 | 32.1 | > 100 | 20.1 | 24.9 | 32.4 | 44 | 32.1 | 55.2 | 16.5 |
| COC(=O)C(CNC(=O)/C=C/c1ccc(OC(C)=O)c(OC(C)=O)c1)NC(=O)/C=C/c1ccc(OC(C)=O)c(OC(C)=O)c1 (stereo unspecified) | > 100 | > 100 | > 100 | > 100 | > 100 | > 100 | > 100 | > 100 | > 100 | > 100 | > 100 |
| CC(C)=C=CP(=O)(O)c1ccccc1 | > 100 | > 100 | > 100 | > 100 | > 100 | > 100 | > 100 | > 100 | > 100 | > 100 | > 100 |
| Nc1ccn(CC(O)c2cc3ccccc3[nH]2)c(=O)n1 (stereo unspecified) | > 100 | > 100 | > 100 | > 100 | > 100 | > 100 | > 100 | > 100 | > 100 | > 100 | > 100 |
| O=C(CN1CCN(c2ccccn2)CC1)N1CCCn2c1nc1ccccc1c2=O | > 100 | > 100 | > 100 | > 100 | > 100 | > 100 | > 100 | > 100 |  | > 100 | > 100 |
| Cc1cc(OCc2nnc3n2N=C(c2cc(F)c(Cl)cc2Cl)/C(=C/c2ccc(-c4ccc(Cl)cc4)o2)S3)ccc1Cl | > 50 | > 50 | > 50 | > 50 | > 50 | > 50 | > 50 | > 50 | > 50 | > 50 | > 50 |
| N#Cc1c(N2CCCC2)nsc1Nc1ccccc1 | > 100 | > 100 | > 100 | > 100 | > 100 |  | > 100 | > 100 | > 100 | > 100 |  |
| C=C1CC(O)C2C(=C)C(=O)OC2C2C(C)C(=O)CC12 (stereo unspecified) | 63.3 | 17.9 | 34.4 | 28.7 | 20.3 | 24 | > 100 | 38.2 | 46.5 | 38.5 | 29.1 |
